Test results published in patent publication US5179120A, “Porphycene compounds for photodynamic therapy” (Cytopharm, Inc., priority 1991, dated 1993).

Experiments:
[1] = Solubility of the title compound in selected solvents; assay type: physicochemical
Excerpt: Solubility of the title compound in selected solvents: […]

[2] = Stability towards oxygen and light (observation during preparation); assay type: physicochemical; settings: traces of oxygen in the presence of light
Protocol: At room temperature while stirring in the dark, 243 mg (248 μL, 1.6 mmol) DBU were added all at once to a solution of 14.8 mg (20 μmol) tetrakis(bromoethyl)porphycene in 50 mL of absolute THF. After thirty minutes, the agitator was turned off and the mixture left to stand at room temperature for two days. Subsequently the greenish-blue solution was treated with 80 mL of CH2 Cl2 and poured into 80 mL of 0.5% HCl. The organic phase was shaken out and washed with water and a 2% NaHCO3 solution, dried over Na2 SO4 and the solvent was evaporated under vacuum. The residue was chromatographed with CH2 Cl2 on aluminum oxide (Brockmann, II-III activity stage, column 2×10 cm) and the first green fraction was collected. The solvent was slowly evaporated under a slight vacuum and the remaining fine crystalline solid was washed with 3 mL of ice cooled, absolute pentane. Following drying under a high vacuum, 4.1 mg (10 μmol) tetravinylporphycene were obtained. […] The yield was 50%.
All reagents and solvents were purged of oxygen by introducing inert gas and all purification steps were carried out under subdued light, as was the reaction.

| SMILES | Solubility of the title compound in selected solvents ([1]; CH2 Cl2) | Solubility of the title compound in selected solvents ([1]; CHCl3) | Solubility of the title compound in selected solvents ([1]; DEET) | Solubility of the title compound in selected solvents ([1]; DMF) | Solubility of the title compound in selected solvents ([1]; DMSO) | Solubility of the title compound in selected solvents ([1]; EtOH) | Solubility of the title compound in selected solvents ([1]; MeOH) | Solubility of the title compound in selected solvents ([1]; THF) | Solubility of the title compound in selected solvents ([1]; Toluene) | Solubility of the title compound in selected solvents ([1]; acetone) | Solubility of the title compound in selected solvents ([1]; ethyl acetate) | Solubility of the title compound in selected solvents ([1]; hexane) | Solubility of the title compound in selected solvents ([1]; i-propanol) | Solubility of the title compound in selected solvents ([1]; water) | Stability (decomposition) [2] |
| --- | --- | --- | --- | --- | --- | --- | --- | --- | --- | --- | --- | --- | --- | --- | --- |
| COCCC1=Cc2nc1ccc1[nH]c(cc1CCOC)c1nc(c(OC(C)=O)cc3[nH]c2cc3CCOC)C(CCOC)=C1 [9-Acetoxy-2,7,12,17-tetrakis(methoxyethyl)porphycene] | Excellent | Excellent | Good | Good | Good | Moderate | Moderate | Excellent | Good | Good | Excellent | Insoluble | Moderate | Insoluble | – |
| C=CC1=Cc2nc1ccc1[nH]c(cc1C=C)c1nc(ccc3[nH]c2cc3C=C)C(C=C)=C1 [2,7,12,17-Tetravinylporphycene] | – | – | – | – | – | – | – | – | – | – | – | – | – | – | decomposed even with traces of oxygen in the presence of light |
